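Cultured in 96-well plates, cells were exposed to test compound for 48 hours across five concentrations. TGI: total growth inhibition.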
Key:
Experiment in all cases: inhibition of tumour cell growth, NCI panel, 48 h
HCT-116 colon = test system: HCT-116 colon
SW-620 colon = test system: SW-620 colon
SN12C renal = test system: SN12C renal
U251 CNS = test system: U251 CNS
UACC-62 melanoma = test system: UACC-62 melanoma
COLO 205 colon = test system: COLO 205 colon
SNB-78 CNS = test system: SNB-78 CNS
OVCAR-5 ovarian = test system: OVCAR-5 ovarian
NCI-H522 lung = test system: NCI-H522 lung
KM20L2 colon = test system: KM20L2 colon
HT29 colon = test system: HT29 colon
K-562 leukemia = test system: K-562 leukemia
MOLT-4 leukemia = test system: MOLT-4 leukemia
OVCAR-3 ovarian = test system: OVCAR-3 ovarian
M14 melanoma = test system: M14 melanoma
MALME-3M melanoma = test system: MALME-3M melanoma
RXF 393 renal = test system: RXF 393 renal
NCI-H226 lung = test system: NCI-H226 lung
SF-539 CNS = test system: SF-539 CNS
HCC-2998 colon = test system: HCC-2998 colon
OVCAR-8 ovarian = test system: OVCAR-8 ovarian
M19-MEL melanoma = test system: M19-MEL melanoma
RPMI-8226 leukemia = test system: RPMI-8226 leukemia
EKVX NSCLC = test system: EKVX NSCLC
NCI-H460 lung = test system: NCI-H460 lung
786-0 renal = test system: 786-0 renal
SR leukemia = test system: SR leukemia
SK-MEL-2 melanoma = test system: SK-MEL-2 melanoma
KM12 colon = test system: KM12 colon
HL-60(TB) leukemia = test system: HL-60(TB) leukemia
HOP-18 NSCLC = test system: HOP-18 NSCLC
CCRF-CEM leukemia = test system: CCRF-CEM leukemia
UACC-257 melanoma = test system: UACC-257 melanoma
CAKI-1 renal = test system: CAKI-1 renal
SF-295 CNS = test system: SF-295 CNS
SK-MEL-5 melanoma = test system: SK-MEL-5 melanoma
SNB-19 CNS = test system: SNB-19 CNS
SF-268 CNS = test system: SF-268 CNS
HOP-62 NSCLC = test system: HOP-62 NSCLC
UO-31 renal = test system: UO-31 renal
IGROV1 ovarian = test system: IGROV1 ovarian
DLD-1 colon = test system: DLD-1 colon
SK-MEL-28 melanoma = test system: SK-MEL-28 melanoma
ACHN renal = test system: ACHN renal
LXFL 529 NSCLC = test system: LXFL 529 NSCLC
OVCAR-4 ovarian = test system: OVCAR-4 ovarian
A549 NSCLC = test system: A549 NSCLC
LOX IMVI melanoma = test system: LOX IMVI melanoma
XF 498 CNS = test system: XF 498 CNS
HCT-15 colon = test system: HCT-15 colon
T-47D breast = test system: T-47D breast
TK-10 renal = test system: TK-10 renal
NCI-H23 lung = test system: NCI-H23 lung
MDA-N = test system: MDA-N
PC-3 prostate = test system: PC-3 prostate
RXF-631 renal = test system: RXF-631 renal
SK-OV-3 ovarian = test system: SK-OV-3 ovarian
DMS 114 small cell lung = test system: DMS 114 small cell lung
BT-549 breast = test system: BT-549 breast
MCF7 breast = test system: MCF7 breast
NCI/ADR-RES ovarian = test system: NCI/ADR-RES ovarian
MDA-MB-435 = test system: MDA-MB-435
DU-145 prostate = test system: DU-145 prostate
DMS 273 small cell lung = test system: DMS 273 small cell lung
HOP-92 NSCLC = test system: HOP-92 NSCLC
SNB-75 CNS = test system: SNB-75 CNS
A498 renal = test system: A498 renal
HS 578T breast = test system: HS 578T breast
MDA-MB-231 breast = test system: MDA-MB-231 breast

Compound: O=[N+]([O-])c1ccc(-c2noc(-c3ccc(Cl)cc3)c2C2=NCCN2)cc1
- TGI (HCT-116 colon): > 100 µM
- TGI (SW-620 colon): > 100 µM
- TGI (SN12C renal): > 100 µM
- TGI (U251 CNS): > 100 µM
- TGI (UACC-62 melanoma): > 100 µM
- TGI (COLO 205 colon): > 100 µM
- TGI (SNB-78 CNS): > 100 µM
- TGI (OVCAR-5 ovarian): > 100 µM
- TGI (NCI-H522 lung): > 100 µM
- TGI (KM20L2 colon): > 100 µM
- TGI (HT29 colon): > 100 µM
- TGI (K-562 leukemia): > 100 µM
- TGI (MOLT-4 leukemia): > 100 µM
- TGI (OVCAR-3 ovarian): > 100 µM
- TGI (M14 melanoma): > 100 µM
- TGI (MALME-3M melanoma): > 100 µM
- TGI (RXF 393 renal): > 100 µM
- TGI (NCI-H226 lung): > 100 µM
- TGI (SF-539 CNS): > 100 µM
- TGI (HCC-2998 colon): > 100 µM
- TGI (OVCAR-8 ovarian): > 100 µM
- TGI (M19-MEL melanoma): > 100 µM
- TGI (RPMI-8226 leukemia): > 100 µM
- TGI (EKVX NSCLC): > 100 µM
- TGI (NCI-H460 lung): > 100 µM
- TGI (786-0 renal): > 100 µM
- TGI (SR leukemia): > 100 µM
- TGI (SK-MEL-2 melanoma): > 100 µM
- TGI (KM12 colon): > 100 µM
- TGI (HL-60(TB) leukemia): > 100 µM
- TGI (HOP-18 NSCLC): > 100 µM
- TGI (CCRF-CEM leukemia): > 100 µM
- TGI (UACC-257 melanoma): > 100 µM
- TGI (CAKI-1 renal): > 100 µM
- TGI (SF-295 CNS): > 100 µM
- TGI (SK-MEL-5 melanoma): > 100 µM
- TGI (SNB-19 CNS): > 100 µM
- TGI (SF-268 CNS): > 100 µM
- TGI (HOP-62 NSCLC): > 100 µM
- TGI (UO-31 renal): > 100 µM
- TGI (IGROV1 ovarian): > 100 µM
- TGI (DLD-1 colon): > 100 µM
- TGI (SK-MEL-28 melanoma): > 100 µM
- TGI (ACHN renal): > 100 µM
- TGI (LXFL 529 NSCLC): > 100 µM
- TGI (OVCAR-4 ovarian): > 100 µM
- TGI (A549 NSCLC): > 100 µM
- TGI (LOX IMVI melanoma): > 100 µM
- TGI (XF 498 CNS): > 100 µM
- TGI (HCT-15 colon): > 100 µM

Compound: C=CCc1cc(-c2cc(CC=C)c(O)c(CN(CC)CC)c2)cc(CN(CC)CC)c1O
- TGI (T-47D breast): > 100 µM
- TGI (TK-10 renal): > 100 µM
- TGI (HCT-116 colon): 55.9 µM
- TGI (SW-620 colon): 76.2 µM
- TGI (SN12C renal): > 100 µM
- TGI (NCI-H23 lung): > 100 µM
- TGI (MDA-N): > 73.5 µM
- TGI (U251 CNS): > 100 µM
- TGI (UACC-62 melanoma): 48.5 µM
- TGI (PC-3 prostate): > 100 µM
- TGI (COLO 205 colon): > 82.2 µM
- TGI (SNB-78 CNS): > 100 µM
- TGI (OVCAR-5 ovarian): 52.6 µM
- TGI (RXF-631 renal): 44.5 µM
- TGI (NCI-H522 lung): 70.8 µM
- TGI (KM20L2 colon): 40 µM
- TGI (HT29 colon): 40.9 µM
- TGI (K-562 leukemia): > 100 µM
- TGI (MOLT-4 leukemia): > 100 µM
- TGI (OVCAR-3 ovarian): > 100 µM
- TGI (SK-OV-3 ovarian): > 100 µM
- TGI (M14 melanoma): 23.4 µM
- TGI (DMS 114 small cell lung): > 100 µM
- TGI (MALME-3M melanoma): 32.8 µM
- TGI (BT-549 breast): > 100 µM
- TGI (RXF 393 renal): 52 µM
- TGI (NCI-H226 lung): 98.7 µM
- TGI (SF-539 CNS): 54.3 µM
- TGI (HCC-2998 colon): > 100 µM
- TGI (MCF7 breast): > 100 µM
- TGI (OVCAR-8 ovarian): > 100 µM
- TGI (M19-MEL melanoma): 43.8 µM
- TGI (RPMI-8226 leukemia): > 88.1 µM
- TGI (EKVX NSCLC): > 100 µM
- TGI (NCI-H460 lung): 64.9 µM
- TGI (786-0 renal): > 100 µM
- TGI (NCI/ADR-RES ovarian): > 100 µM
- TGI (SR leukemia): 70.6 µM
- TGI (SK-MEL-2 melanoma): 60.3 µM
- TGI (KM12 colon): > 100 µM
- TGI (HL-60(TB) leukemia): > 86.3 µM
- TGI (HOP-18 NSCLC): > 100 µM
- TGI (CCRF-CEM leukemia): 79.1 µM
- TGI (UACC-257 melanoma): 68.5 µM
- TGI (CAKI-1 renal): > 100 µM
- TGI (SF-295 CNS): > 88 µM
- TGI (MDA-MB-435): > 92.7 µM
- TGI (SK-MEL-5 melanoma): 25.9 µM
- TGI (DU-145 prostate): > 100 µM
- TGI (SNB-19 CNS): > 100 µM
- TGI (SF-268 CNS): > 100 µM
- TGI (DMS 273 small cell lung): 82.5 µM
- TGI (HOP-92 NSCLC): 96.9 µM
- TGI (HOP-62 NSCLC): 76.8 µM
- TGI (UO-31 renal): 44.3 µM
- TGI (IGROV1 ovarian): > 100 µM
- TGI (DLD-1 colon): > 100 µM
- TGI (SNB-75 CNS): > 100 µM
- TGI (SK-MEL-28 melanoma): 80.6 µM
- TGI (A498 renal): > 100 µM
- TGI (ACHN renal): > 100 µM
- TGI (LXFL 529 NSCLC): > 100 µM
- TGI (OVCAR-4 ovarian): > 100 µM
- TGI (A549 NSCLC): > 100 µM
- TGI (HS 578T breast): > 100 µM
- TGI (LOX IMVI melanoma): 31.7 µM
- TGI (MDA-MB-231 breast): > 87.7 µM
- TGI (HCT-15 colon): 51.7 µM

Compound: CCC/C=C1\CCC(CN(C)C)C1=O (stereo not drawn)
- TGI (TK-10 renal): 14.6 µM
- TGI (HCT-116 colon): 23.1 µM
- TGI (SW-620 colon): 11.6 µM
- TGI (SN12C renal): 32.7 µM
- TGI (NCI-H23 lung): 32.8 µM
- TGI (U251 CNS): 15.6 µM
- TGI (UACC-62 melanoma): 28.2 µM
- TGI (COLO 205 colon): 10.7 µM
- TGI (OVCAR-5 ovarian): 35.6 µM
- TGI (NCI-H522 lung): 3.87 µM
- TGI (KM20L2 colon): 27.2 µM
- TGI (HT29 colon): 17.9 µM
- TGI (MOLT-4 leukemia): 12.6 µM
- TGI (OVCAR-3 ovarian): 12.3 µM
- TGI (SK-OV-3 ovarian): > 56.7 µM
- TGI (M14 melanoma): 16.1 µM
- TGI (DMS 114 small cell lung): 31.2 µM
- TGI (MALME-3M melanoma): 11.4 µM
- TGI (NCI-H226 lung): 35.1 µM
- TGI (SF-539 CNS): 25.3 µM
- TGI (HCC-2998 colon): 29.5 µM
- TGI (OVCAR-8 ovarian): 33.7 µM
- TGI (M19-MEL melanoma): 26.7 µM
- TGI (RPMI-8226 leukemia): 2.75 µM
- TGI (EKVX NSCLC): 12.3 µM
- TGI (NCI-H460 lung): > 63.2 µM
- TGI (786-0 renal): 7.16 µM
- TGI (SR leukemia): 8.98 µM
- TGI (SK-MEL-2 melanoma): 29.7 µM
- TGI (KM12 colon): 15.3 µM
- TGI (HL-60(TB) leukemia): 31.5 µM
- TGI (HOP-18 NSCLC): 39 µM
- TGI (CCRF-CEM leukemia): 1.97 µM
- TGI (UACC-257 melanoma): 30.8 µM
- TGI (CAKI-1 renal): 4.59 µM
- TGI (SF-295 CNS): > 55.3 µM
- TGI (SK-MEL-5 melanoma): 32.3 µM
- TGI (SNB-19 CNS): > 67 µM
- TGI (SF-268 CNS): 19.8 µM
- TGI (DMS 273 small cell lung): 27.1 µM
- TGI (HOP-92 NSCLC): 6.8 µM
- TGI (HOP-62 NSCLC): 29.2 µM
- TGI (UO-31 renal): 26.6 µM
- TGI (IGROV1 ovarian): 34.4 µM
- TGI (DLD-1 colon): 5.54 µM
- TGI (SNB-75 CNS): 32.9 µM
- TGI (SK-MEL-28 melanoma): 14.9 µM
- TGI (A498 renal): 23.9 µM
- TGI (ACHN renal): 11.2 µM
- TGI (LXFL 529 NSCLC): 3.33 µM
- TGI (OVCAR-4 ovarian): 38.6 µM
- TGI (A549 NSCLC): > 62.2 µM
- TGI (LOX IMVI melanoma): 20.8 µM
- TGI (XF 498 CNS): 11.1 µM
- TGI (HCT-15 colon): 6.68 µM

Reference: PubChem BioAssay (NCI)
